The values that follow come from US20240164385A1, “A SYNERGISTIC PLANT GROWTH STIMULANT COMPOSITION COMPRISING POTASSIUM MONO/DIFORMATE AND METAL ION COMPOUNDS TO ENHANCED METABOLIC ACTIVITIES IN PLANTS” (FERTIS INDIA PVT LTD, priority 2021, published 2024).

Holding throughout (format): in vivo
For test [1], the system named is paddy grain. Nature of the test: Micronutrient absorption levels in paddy grains by ICP. To be noted: paddy grain samples. The protocol: Analysis of Micronutrients in Paddy Samples by ICP (Inductive Coupled Plasma) Equipment.
• i. 1 gm of grain powder added to 60 ml of perchloric acid and Nitric acid (9:1) digest for overnight. • ii. Heat at 100° C. for 2 hours until vapors change from red to white color. • iii. The resultant solution filtered through Whatman paper and makeup to 100 ml with 1% nitric acid.

The subject of test [2] is paddy grain. In words: Estimation of total phenol content in paddy grain samples (Folin-Ciocalteu). To be noted: absorbance at 765 nm. The method, then:
Folin-Ciocalteu's Phenol Reagent Preparation: Take 5 ml of folin ciocalteu's phenol reagent in 50 ml of volumetric flask and then make up to the mark with distilled water 7.5% of Na2CO3 Preparation: Take 7.5 g of Na2CO3 in 100 ml of volumetric flask and then make up to mark with distilled water. Sample Procedure: • i. […] Keep it hot plate for extraction at 95° C. for 1 hr. • iii. After 1 hr filter through whatman filter paper 1 and then make up to 25 ml of volumetric flask with 70% methanol. • iv. […] Incubation for 5 mins. • vi. After 5 mins add 4 ml of 7.5% Na2CO3 mix well then keep it dark place incubation for 1 hr. • vii. Measure the absorbance at 765 nm. • viii. […] Check OD @765 nm.

For test [3], the system named is paddy grain. In words: Estimation of total protein content in paddy grain samples by Lowry method. To be noted: 660 nm. The method, then: To the above solution add 5 g of Na2co3 mix well. B. 1% NAK Tartrate (Sodium Potassium Tartrate) Preparation: • Dissolve 1 g of NAK tartrate in 100 ml of volumetric flask and then make up to mark with distilled water. C. […] Dissolve 100 mg of BSA in 100 ml of volumetric flask and then make up to mark with distilled water. Take 6 test tubes then add to the above solution each of 0.1, 0.2, 0.3, 0.4, 0.5, 0.6. Sample Procedure: • i. […] Then filter through whatman filter paper 1 we take test tubes and add 1 ml of each sample. • iii. Add 4.5 ml of reagent 1 and incubate for 10 mins. • iv. After incubation add 0.5 ml of reagent 2 and incubate for 30 mins. • v. Measure the absorbance at 660 nm and plot the standard graph. The Analysis of protein estimation in grain samples is performed by Lowry method with UV Vis Spectro photo meter at 660 nm.

With `O=CO.O=C[O-].[K+]` [Potassium diformate], in the test with paddy grain [1], the “B (Boron)” value is on record as 35.9 ppm, the “Ca (Calcium)” value is recorded as 399.0 ppm, the “Co (Cobalt)” value stood at 14.2 ppm and the “Cu (Copper)” value was 35.0 ppm. Also, in the test with paddy grain [1], the “Fe (Iron)” value came out at 397.0 ppm, the “Mg (Magnesium)” value amounted to 678.0 ppm, the “Mn (Manganese)” value amounted to 50.4 ppm and the “Zn (Zinc)” value was 66.6 ppm. In addition, the “Phenol Content” value with paddy grain [2] is on record as 17.96 ppm. In the test with paddy grain [3], the “Total Protein content” value is given as 0.084 ppm.
For `O=C[O-].[K+]` [Potassium formate], in the test with paddy grain [1], the “B (Boron)” value is 38.4 ppm, the “Ca (Calcium)” value is 401.7 ppm, the “Co (Cobalt)” value is given as 14.2 ppm and the “Cu (Copper)” value amounted to 37.0 ppm. Besides, in the test on paddy grain [1], the “Fe (Iron)” value turned out to be 401.0 ppm, the “Mg (Magnesium)” value stood at 646.0 ppm, the “Mn (Manganese)” value turned out to be 46.5 ppm and the “Zn (Zinc)” value is 50.6 ppm. For the same molecule, the “Phenol Content” value in the test on paddy grain [2] was 16.69 ppm. The “Total Protein content” value in the test on paddy grain [3] was 0.086 ppm.
